Among the test systems are HCC 2998; KM12; RXF 393; SN12C; NCI-H23; UACC-62; T47D; NCI-H460; A498; ACHN; NCI/ADR-RES; HCT-116; BT-549; CAKI-1; SK-MEL-28; UACC-257; MCF7; OVCAR-3; SR.
Common to all, as to test: DTP human tumour cell line panel, 48 h

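Briefly, cells in 96-well plates were exposed to five compound concentrations for 48 h, and endpoints were estimated by linear interpolation. GI50: concentration for 50% inhibition of growth.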 The source made the active and inactive calls. Cut-off read from the data, not from the text of the source: active = GI50 up to about 1.1 µM and inactive = higher.

Regarding `CC(C)CNc1nc(N)nc(O)c1NC=O`, the GI50 with HCC 2998, in the test with KM12, in the test with RXF 393, in the test on SN12C, in the test on NCI-H23 and with UACC-62 was > 100 µM (inactive) each time. For the same molecule, the GI50 in the test on T47D, in the test with NCI-H460, with A498, with ACHN, in the test with NCI/ADR-RES and in the test on HCT-116 was > 100 µM (inactive) throughout. Also, the GI50 with BT-549, in the test on CAKI-1, in the test on SK-MEL-28, in the test with UACC-257, with MCF7 and with OVCAR-3 was > 100 µM (inactive) throughout.

Take `N=C(N)c1ccc(/N=N\c2c(O)ccc3cc4c(/N=N\c5ccc(C(=N)N)cc5)c(O)ccc4cc23)cc1`: the GI50 with HCC 2998 is > 100 µM (inactive); in the test on KM12 it was > 100 µM (inactive); with SR, 26.6 µM (inactive); in the test on RXF 393 it was > 100 µM (inactive); in the test with SN12C, > 100 µM (inactive); with UACC-62 it was > 100 µM (inactive). The GI50 with T47D was 96.8 µM (inactive); in the test on NCI-H460, 40.7 µM (inactive); in the test on ACHN, > 100 µM (inactive); in the test on NCI/ADR-RES, > 100 µM (inactive); in the test with HCT-116 it was 50 µM (inactive); with BT-549, > 100 µM (inactive). Besides, the GI50 is > 100 µM (inactive) in the test on CAKI-1; > 100 µM (inactive) in the test with SK-MEL-28; > 100 µM (inactive) in the test with UACC-257; 87.9 µM (inactive) in the test on MCF7; > 100 µM (inactive) in the test on OVCAR-3.

Turning to `O=c1oc2cc(/N=C/c3ccc4c(c3)OCO4)ccc2c2ccccc12`, the GI50 in the test with KM12 is > 100 µM (inactive); with SR, 25.5 µM (inactive); with RXF 393, 19.2 µM (inactive); with SN12C, 51.9 µM (inactive); in the test with NCI-H23 it was > 100 µM (inactive); in the test on UACC-62, 55.8 µM (inactive). Moreover, the GI50 in the test with T47D is 43.7 µM (inactive); in the test on NCI-H460 it was 39.8 µM (inactive); in the test on A498, 49.8 µM (inactive); in the test on ACHN it was 58.1 µM (inactive); in the test on NCI/ADR-RES, 77.1 µM (inactive); in the test on HCT-116 it was 46.3 µM (inactive). In addition, the GI50 was > 100 µM (inactive) with BT-549; 65 µM (inactive) with CAKI-1; > 100 µM (inactive) in the test with SK-MEL-28; > 100 µM (inactive) in the test on UACC-257; 54.5 µM (inactive) in the test on MCF7; > 100 µM (inactive) in the test on OVCAR-3.

Regarding `CC(C)(C)c1cc(C(=O)C2Cc3ccccc3C(=O)O2)cc(C(C)(C)C)c1O` (stereo unspecified), the GI50 in the test with KM12 is 12 µM (inactive); in the test with SR it was 3.59 µM (inactive); with RXF 393 it was 12.1 µM (inactive); in the test on SN12C, 11.5 µM (inactive); with NCI-H23, 13.9 µM (inactive); with UACC-62, 12.1 µM (inactive). Moreover, the GI50 in the test with T47D was 16.5 µM (inactive); with NCI-H460 it was 10.9 µM (inactive); with A498, 13.5 µM (inactive); in the test on ACHN, 17.1 µM (inactive); with NCI/ADR-RES it was 13 µM (inactive); with HCT-116 it was 10.2 µM (inactive). Further, the GI50 in the test on BT-549 was 10.5 µM (inactive); in the test on CAKI-1 it was 19.3 µM (inactive); with SK-MEL-28 it was 15.8 µM (inactive); in the test with UACC-257, 11.6 µM (inactive); in the test on MCF7 it was 12.5 µM (inactive); in the test on OVCAR-3 it was 12.2 µM (inactive).

Regarding `c1ccc2c(c1)CC1COc3ccccc3C1O2` (stereo unspecified), the GI50 in the test with HCC 2998 was 42.3 µM (inactive); in the test on KM12, 44.2 µM (inactive); in the test on SR, 88.1 µM (inactive); with SN12C, 67.5 µM (inactive); in the test with NCI-H23 it was 67.1 µM (inactive); in the test with UACC-62 it was > 100 µM (inactive). Moreover, the GI50 with T47D was 51.4 µM (inactive); in the test with A498 it was > 100 µM (inactive); with ACHN, 75.9 µM (inactive); in the test with NCI/ADR-RES, 47.8 µM (inactive); with HCT-116 it was 45.8 µM (inactive); with BT-549 it was 70.3 µM (inactive). Besides, the GI50 was 71.3 µM (inactive) in the test on CAKI-1, 38.8 µM (inactive) with UACC-257, 45.2 µM (inactive) with MCF7 and 67.8 µM (inactive) with OVCAR-3.

Regarding `O=C1C(/C=N/CCc2c[nH]c3ccccc23)C(C(F)(F)F)=NN1c1nc2ccccc2s1` (stereo unspecified), the GI50 was 31.6 µM (inactive) with SR; 15 µM (inactive) in the test on RXF 393; 37.6 µM (inactive) with SN12C; 30.8 µM (inactive) with NCI-H23; 19.5 µM (inactive) in the test on UACC-62; 0.664 µM (active) with T47D. Moreover, the GI50 in the test with NCI-H460 was 24.1 µM (inactive); in the test on A498 it was 20.3 µM (inactive); with ACHN it was 27.4 µM (inactive); in the test with NCI/ADR-RES, 26.7 µM (inactive); in the test on HCT-116, 31.6 µM (inactive); with BT-549, 25.3 µM (inactive). Besides, the GI50 in the test with CAKI-1 was 37.2 µM (inactive); in the test on SK-MEL-28, 33.3 µM (inactive); with UACC-257 it was 18 µM (inactive); in the test with MCF7, 23 µM (inactive); in the test on OVCAR-3 it was 20.7 µM (inactive).

With `CC(=O)NC(Cc1c[nH]cn1)C(=O)N1CCCC1C(N)=O` (stereo unspecified), the GI50 in the test with HCC 2998, in the test on KM12, in the test with SR, in the test with RXF 393, with SN12C and with NCI-H23 was > 100 µM (inactive) throughout. For the same molecule, the GI50 with UACC-62, with T47D, with NCI-H460, in the test on ACHN, in the test on NCI/ADR-RES and with HCT-116 was > 100 µM (inactive) in each case. Further, the GI50 with BT-549, with CAKI-1, in the test on SK-MEL-28, in the test on MCF7 and in the test with OVCAR-3 was > 100 µM (inactive) in each case.

Turning to `CCCCC(=C=C1CCCCC1O)C1CCCN1C(=O)OC(C)(C)C` (stereo unspecified), the GI50 is 22.1 µM (inactive) in the test with HCC 2998; 16.6 µM (inactive) in the test with KM12; 23.6 µM (inactive) with SR; 13 µM (inactive) in the test with RXF 393; 17.8 µM (inactive) with SN12C; 16 µM (inactive) with NCI-H23. Also, the GI50 is 11.2 µM (inactive) in the test on UACC-62; 13.2 µM (inactive) in the test with T47D; 15.5 µM (inactive) with NCI-H460; 15.8 µM (inactive) in the test on ACHN; 14.3 µM (inactive) with NCI/ADR-RES; 14.3 µM (inactive) with HCT-116. The GI50 with BT-549 is 19.3 µM (inactive); with CAKI-1 it was 11.5 µM (inactive); in the test with SK-MEL-28, 15.5 µM (inactive); with UACC-257 it was 15.6 µM (inactive); with MCF7 it was 17.2 µM (inactive); in the test with OVCAR-3, 15.7 µM (inactive).

For the molecule `C[C@@H]1OC(=O)C[C@H]2CC(=O)N(CCC3CN(S(=O)(=O)C(F)(F)F)c4ccc(Cc5ccc6c(c5)C(CCN5C[C@H]7[C@@H](CC(=O)O[C@H]7C)CC5=O)CN6S(=O)(=O)C(F)(F)F)cc43)C[C@@H]21` (stereo partly specified), the GI50 in the test on HCC 2998, with KM12, in the test with RXF 393, in the test with NCI-H23, in the test with UACC-62 and in the test on T47D was > 100 µM (inactive) in each case. For the same molecule, the GI50 with NCI-H460, in the test with A498, with ACHN, in the test on NCI/ADR-RES, in the test on HCT-116 and in the test on BT-549 was > 100 µM (inactive) in each case. Besides, the GI50 with CAKI-1, in the test on SK-MEL-28, in the test on UACC-257, in the test on MCF7 and in the test with OVCAR-3 was > 100 µM (inactive) throughout.

Take `O=c1c2ccccc2[nH]c2c(Cl)cc(Cl)c(N3CCCCC3)c12`: the GI50 in the test on HCC 2998 is 31.9 µM (inactive); in the test on KM12 it was 19.1 µM (inactive); with SR it was 36.5 µM (inactive); in the test on SN12C it was 22.1 µM (inactive); with NCI-H23, 24.1 µM (inactive); in the test on UACC-62 it was > 10 µM (inactive). The GI50 with T47D is 50.6 µM (inactive); in the test on A498, 28.3 µM (inactive); in the test with ACHN, 23 µM (inactive); in the test with NCI/ADR-RES, 25.6 µM (inactive); in the test with HCT-116, 46.3 µM (inactive); in the test with BT-549 it was 43.5 µM (inactive). Moreover, the GI50 was 30.5 µM (inactive) with CAKI-1; 58.5 µM (inactive) in the test on SK-MEL-28; 39.1 µM (inactive) in the test with UACC-257; 20.7 µM (inactive) in the test with MCF7; 31.1 µM (inactive) in the test with OVCAR-3.

Take `OCC(O)C(O)C(O)C(O)c1nc2cc(Cl)ccc2[nH]1` (stereo unspecified): the GI50 with HCC 2998, with KM12, with RXF 393, in the test with SN12C, in the test with NCI-H23 and in the test on UACC-62 was > 100 µM (inactive) in each case. The GI50 in the test on T47D, with NCI-H460, in the test with A498, with ACHN, with NCI/ADR-RES and with HCT-116 was > 100 µM (inactive) each time. In addition, the GI50 in the test on BT-549, with CAKI-1, with SK-MEL-28, with UACC-257, in the test on MCF7 and with OVCAR-3 was > 100 µM (inactive) in each case.

For the origin of these results see ChEMBL document CHEMBL1201862, “PubChem BioAssay data set” (2004).
